Measurements reported in US6037351A, “Method of inhibiting hepatitis B virus” (priority 1996, dated 2000).

Assays:
Format in all cases: cell-based, HBV
MHBs (PreS2) antigen = experiment: ELISA of MHBs (PreS2) antigen in unfractionated culture medium of 2.2.15 cells
Description: (§1) FIG. 3D: Histogram of the area under the averaged peaks of the densitometric tracing of the gel in FIG. 3B. […] Equal volumes of the indicated samples were tested for HBV envelope antigens using the enzyme-linked imminosorbent assay (ELISA) method. Samples of unfractionated medium (FIGS. 4A, 4B and 4C) or partially purified virus (FIGS. 4D, 4E and 4F) from 3-day cultures were tested for HBV SHBs ("S) (FIGS. 4A and 4D), LHBs: "PreS1" (FIGS. 4B and 4E) or MHBs "PreS2" (FIGS. 4C and 4F) epitopes. Cultures were maintained in the indicated concentrations of NBDNJ, expressed in millimolar units and shown along the X axis.
(§2) Detection of HBV proteins by the Enzyme Linked Immunoabsorbant assay (ELISA).
Monoclonal antibodies used herein are well-known and are described by Heerman et al., J. Virol. 52, 396-402 (1984), for antibody to PreS1 (MA 18/7); Heerman et al., Intervirology 28: 14-21 (1987), for antibody to PreS2 (Q 19/10), see also Gerlich and Bruss, Molecular Biology of Hepatitis B Virus, ed. A. McLachlan, CRC Press, 109-144 (1992), and in Hepatitis B Vaccines in Clinical Practice, ed. R. W. Ellis, Marcel Dekker, Inc., pp. 41-82 (1992); and Heerman et al., in Viral Hepatitis and Liver Disease, ed. Zuckermann, A. R. Liss, 697-701 (1988), for antibody to S (C20-2).].
Samples were incubated in microtiter wells coated (overnight at 4° C.) with monoclonal antibodies specific for the LHBs, MHBs or SHBs epitopes and blocked with 1% BSA in PBS. After incubation with virus samples in for 1 hour (37° C.), plates were washed 4 times with PBS/0.1% Tween 20 non-ionic detergent.
Bound antigen was detected by incubation with peroxidase conjugated goat anti-HBs antibody (Behring) followed by development in orthophenylenediamine (0.33 mg/ml PBS-peroxide solution). Optical densities were read in a Behring plate reader. Tests on purified virus and total medium were conducted over a series of sample dilutions to insure proper quantification.
To distinguish between these possibilities, the amount and nature of envelope antigens in the culture medium was determined by both ELISA and Western analysis. […]

HBs proteins = experiment: ELISA of HBs proteins in virion fraction of medium (sucrose gradient); conditions: 40-46% sucrose fraction
Description: as §1, §2
Monoclonal antibodies used herein are well-known and are described by Heerman et al., J. Virol. 52, 396-402 (1984), for antibody to PreS1 (MA 18/7); Heerman et al., Intervirology 28: 14-21 (1987), for antibody to PreS2 (Q 19/10), see also Gerlich and Bruss, Molecular Biology of Hepatitis B Virus, ed. […]
Bound antigen was detected by incubation with peroxidase conjugated goat anti-HBs antibody (Behring) followed by development in orthophenylenediamine (0.33 mg/ml PBS-peroxide solution). Optical densities were read in a Behring plate reader. Tests on purified virus and total medium were conducted over a series of sample dilutions to insure proper quantification. […]

MHBs (PreS2) = experiment: Western blot of MHBs in sucrose gradient fractions
Description: Polyethylene glycol (PEG) precipitates of culture medium (FIG. 5A) or partly purified virions, HBs filaments and spheres from untreated (FIG. 5B) and NBDNJ treated (FIG. 5C) cultures were resolved by SDS-PAGE (13.5% acrylamide), transferred to immobilin paper and incubated with PreS1 and PreS2 specific monoclonal antibody.
Samples were dissolved in loading buffer, resolved by electrophoresis through 13.5% SDS polyacrylamide gels (SDS-PAGE) and transferred to PVDF (Millipore) membranes and blocked with 5% powdered milk, as in Gultekin and Heerman, Analytical Biochem. 172, 320-329 (1989). After incubation with primary antibody overnight at room temperature in 1% bovine serum albumin (BSA) in TNE and second antibody (peroxidase conjugated goat anti-mouse IgG serum) for 1 hour in TNE at room temperature, membranes were developed in peroxide-diaminobenzidine (Sigma) PBS, as described in the manufacturer's instructions.
The ELISA results were confirmed by Western blot analysis of fractions from the sucrose gradient containing either intact virus, filaments or spheres (FIGS. 5B, from untreated cultures, and 5C, from NBDNJ treated cultures). […]
Fractions distal to the virion containing fractions (near the bottom of the gradient) were resolved in lane 1 to show specificity of the antibody. […] The images shown in FIGS. 5B and 5C) were quantified by densitometry.

With `CCCCN1C[C@H](O)[C@@H](O)[C@H](O)[C@H]1CO` [NBDNJ, N-butyl-1,5-dideoxy-1,5-imino-D-glucitol] the “decrease in the amount of MHBs antigen in medium (in words)” value (MHBs (PreS2) antigen; 1000 μg/ml NBDNJ, 2.2.15 cells) was “two-fold decrease”, the “decrease in total amount of MHBs (PreS2) antigen in medium” value (MHBs (PreS2) antigen; highest NBDNJ concentration, 4.5 mM or approximately 1000 μg/ml) was “approximately 2.5 fold” and the “total amount of MHBs (PreS2) antigen in medium (in words)” value (MHBs (PreS2) antigen; unfractionated medium, 2.2.15 cells) was “modest, dose-dependentdecrease”. For the same compound, the “HBs proteins in virion samples from medium” value (HBs proteins; NBDNJ 2.25 mM (approximately 500 μg/ml)) was “virtually no detectable HBs proteins”, the “HBs proteins in virion samples from medium” value (HBs proteins; NBDNJ 4.5 mM (approximately 1000 μg/ml)) was “virtually no detectable HBs proteins” and the “decrease of MHBs in virion samples compared to untreated” value (MHBs (PreS2); Western blot densitometry, FIG. 5C lane 2 vs FIG. 5B lane 2) was 12 fold. The “decrease in MHBs (PreS2 epitope) (in words)” value (MHBs (PreS2); medium of NBDNJ treated cultures, FIGS. 5B and 5C) was “particularly severe”.
